From patent US20090233931A1, “THERAPEUTIC COMPOUNDS” (priority 2008, published 2009)

Test system: lashes and adjacent hairs of glaucoma patients
Assay: Eyelash/hair growth observed in glaucoma patients treated in one eye
Format: in vivo, humans
Conditions: glaucoma patient treated in one eye only
Excerpt: In the course of treating patients having glaucoma, treatment may only be appropriate in one eye. […] The lash appearance on the lids of the treated eyes would have appeared quite attractive if it represented a bilateral phenomenon. As a result of its asymmetric nature, the long lashes on one side could be construed as disturbing from a cosmetic standpoint. A systemic examination was preformed as a result of the asymmetric phenomenon. It soon became apparent that this altered appearance was not an isolated finding. […] Definite differences could be identified to varying degrees in the lashes and adjacent hairs of all patients who were taking the drug on a unilateral basis for longer than 6 months.
The changes in the lashes were apparent on gross inspection in several patients once attention was focused on the issue. In those with light colored hair and lashes, the differences were only seen easily with the aid of the high magnification and lighting capabilities of the slit lamp biomicroscope. In the course of glaucoma follow-up examination, attention is generally immediately focused on the eye itself. As a result of the high power magnification needed only one eye is seen at a time and the eye is seen at a high enough power that the lashes are not in focus. […]

Compound: CCNC(=O)CCC/C=C\C[C@@H]1[C@@H](/C=C/[C@@H](O)CCc2ccccc2)[C@H](O)C[C@@H]1O [bimatoprost]
- lash appearance in treated eye versus non-treated eye: longer, thicker, and fuller
